Laboratory results taken from ChEMBL document CHEMBL4219035, “Synthesis of novel forskolin isoxazole derivatives with potent anti-cancer activity against breast cancer cell lines” (Bioorg Med Chem Lett, 2017).
Values belong to the compound of their own block, whether it stands above or below them. The source made the active and inactive calls. No cut-off for these calls is given here.

What was measured:
Assay type in all cases: functional, cell-based
BT-474 = experiment: Antiproliferative activity against human BT474 cells after 48 hrs by Alamar blue assay; conditions: BT-474, 48 h
MCF7 [1] = experiment: Antiproliferative activity against human MCF7 cells after 48 hrs by Alamar blue assay; conditions: MCF7, 48 h
MCF7 [2] = experiment: Cytotoxicity against human MCF7 cells assessed as morphological changes after 48 hrs by microscopic analysis

SMILES: CC(=O)O[C@H]1[C@@H](O)[C@H]2C(C)(C)CC[C@H](OCc3cc(-c4ccccc4)no3)[C@]2(C)[C@@]2(O)C(=O)C[C@](C)(C3CC(c4ccccc4)=NO3)O[C@]12C (stereo partly specified)
- IC50 (BT-474): > 100 µM
- IC50 (MCF7 [1]): 35.3 µM

SMILES: C=C[C@@]1(C)CC(=O)[C@]2(O)[C@@]3(C)[C@@H](OCc4cc(-c5ccc(OCc6ccccc6)cc5)no4)CCC(C)(C)[C@@H]3[C@H](OC(C)=O)[C@H](O)[C@@]2(C)O1
- IC50 (BT-474): > 100 µM
- IC50 (MCF7 [1]): 84.6 µM

SMILES: C=C[C@@]1(C)CC(=O)[C@]2(O)[C@@]3(C)[C@@H](OCc4cc(-c5ccc(OC)cc5)no4)CCC(C)(C)[C@@H]3[C@H](OC(C)=O)[C@H](O)[C@@]2(C)O1
- IC50 (BT-474): > 100 µM
- IC50 (MCF7 [1]): 57.3 µM

SMILES: C=C[C@@]1(C)CC(=O)[C@]2(O)[C@@]3(C)[C@@H](OCc4cc(-c5ccc(C)cc5)no4)CCC(C)(C)[C@@H]3[C@H](OC(C)=O)[C@H](O)[C@@]2(C)O1
- IC50 (BT-474): > 100 µM
- IC50 (MCF7 [1]): 32 µM

SMILES: COc1ccc(C2=NOC([C@@]3(C)CC(=O)[C@]4(O)[C@@]5(C)[C@@H](OCc6cc(-c7ccc(OC)c(OC)c7)no6)CCC(C)(C)[C@@H]5[C@H](O)[C@H](OC(C)=O)[C@@]4(C)O3)C2)cc1OC (stereo partly specified)
- IC50 (BT-474): > 100 µM
- IC50 (MCF7 [1]): 0.5 µM

SMILES: C=C[C@@]1(C)CC(=O)[C@]2(O)[C@@]3(C)[C@@H](OCc4cc(-c5c(OC)cc(OC)cc5OC)no4)CCC(C)(C)[C@@H]3[C@H](O)[C@H](OC(C)=O)[C@@]2(C)O1
- IC50 (BT-474): > 100 µM
- IC50 (MCF7 [1]): 0.5 µM

SMILES: C#CCO[C@H]1CCC(C)(C)[C@@H]2[C@H](OC(C)=O)[C@H](O)[C@@]3(C)O[C@@](C)(C=C)CC(=O)[C@]3(O)[C@@]12C
- IC50 (BT-474): > 100 µM
- IC50 (MCF7 [1]): 30 µM

SMILES: CC[C@@]1(C)CC(=O)[C@]2(O)[C@@]3(C)[C@@H](OCc4cc(-c5ccc(OC)c(OC)c5)no4)CCC(C)(C)[C@@H]3[C@H](O)[C@H](OC(C)=O)[C@@]2(C)O1
- IC50 (BT-474): > 100 µM
- IC50 (MCF7 [1]): 9.6 µM

SMILES: C#CCO[C@H]1CCC(C)(C)[C@@H]2[C@H](O)[C@H](OC(C)=O)[C@@]3(C)O[C@@](C)(C=C)CC(=O)[C@]3(O)[C@@]12C
- IC50 (BT-474): > 100 µM
- IC50 (MCF7 [1]): > 100 µM

SMILES: C=C[C@@]1(C)CC(=O)[C@]2(O)[C@@]3(C)[C@@H](OCc4cc(-c5c(OC)cc(OC)cc5OC)no4)CCC(C)(C)[C@@H]3[C@H](OC(C)=O)[C@H](O)[C@@]2(C)O1
- IC50 (BT-474): > 100 µM
- IC50 (MCF7 [1]): 0.5 µM

SMILES: CC(=O)O[C@H]1[C@@H](O)[C@H]2C(C)(C)CC[C@H](OCc3cc(-c4ccc(C)cc4)no3)[C@]2(C)[C@@]2(O)C(=O)C[C@](C)(C3CC(c4ccc(C)cc4)=NO3)O[C@]12C (stereo partly specified)
- IC50 (BT-474): > 100 µM
- IC50 (MCF7 [1]): 5.6 µM

SMILES: COc1ccc(C2=NOC([C@@]3(C)CC(=O)[C@]4(O)[C@@]5(C)[C@@H](OCc6cc(-c7ccc(OC)c(OC)c7)no6)CCC(C)(C)[C@@H]5[C@H](OC(C)=O)[C@H](O)[C@@]4(C)O3)C2)cc1OC (stereo partly specified)
- IC50 (BT-474): > 100 µM
- IC50 (MCF7 [1]): 0.5 µM

SMILES: COc1ccc(C2=NOC([C@@]3(C)CC(=O)[C@]4(O)[C@@]5(C)[C@@H](OCc6cc(-c7ccc(OC)cc7)no6)CCC(C)(C)[C@@H]5[C@H](OC(C)=O)[C@H](O)[C@@]4(C)O3)C2)cc1 (stereo partly specified)
- IC50 (BT-474): > 100 µM
- IC50 (MCF7 [1]): 79.3 µM

SMILES: C=C[C@@]1(C)CC(=O)[C@]2(O)[C@@]3(C)[C@@H](OCc4cc(-c5ccc(Cl)cc5)no4)CCC(C)(C)[C@@H]3[C@H](OC(C)=O)[C@H](O)[C@@]2(C)O1
- IC50 (BT-474): > 100 µM
- IC50 (MCF7 [1]): 4 µM

More lines, main results first:

- IC50 (BT-474): > 100 µM
- IC50 (MCF7 [1]): 55.3 µM
SMILES: C=C[C@@]1(C)CC(=O)[C@]2(O)[C@@]3(C)[C@@H](OCc4cc(-c5cc(OC)c(OC)c(OC)c5)no4)CCC(C)(C)[C@@H]3[C@H](O)[C@H](OC(C)=O)[C@@]2(C)O1

- IC50 (BT-474): > 100 µM
- IC50 (MCF7 [1]): 4.4 µM
SMILES: C=C[C@@]1(C)CC(=O)[C@]2(O)[C@@]3(C)[C@@H](OCc4cc(-c5cc(OC)c(OC)c(OC)c5)no4)CCC(C)(C)[C@@H]3[C@H](OC(C)=O)[C@H](O)[C@@]2(C)O1

- IC50 (BT-474): > 100 µM
- IC50 (MCF7 [1]): 59 µM
SMILES: CC(=O)O[C@H]1[C@H]2C(C)(C)CC[C@H](OCc3cc(-c4ccc(C)cc4)no3)[C@]2(C)[C@@]2(O)C(=O)C[C@](C)(C3CC(c4ccc(C)cc4)=NO3)O[C@]2(C)[C@H]1O (stereo partly specified)

- IC50 (BT-474): 29.3 µM
- IC50 (MCF7 [1]): 0.5 µM
SMILES: CC[C@@]1(C)CC(=O)[C@]2(O)[C@@]3(C)[C@@H](OCc4cc(-c5cc(OC)c(OC)c(OC)c5)no4)CCC(C)(C)[C@@H]3[C@H](O)[C@H](OC(C)=O)[C@@]2(C)O1

- IC50 (BT-474): > 100 µM
- IC50 (MCF7 [1]): 5.6 µM
SMILES: C=C[C@@]1(C)CC(=O)[C@]2(O)[C@@]3(C)[C@@H](OCc4cc(-c5ccc(Cl)cc5)no4)CCC(C)(C)[C@@H]3[C@H](O)[C@H](OC(C)=O)[C@@]2(C)O1

- IC50 (BT-474): > 100 µM
- IC50 (MCF7 [1]): 10 µM
SMILES: C#CCO[C@H]1CCC(C)(C)[C@@H]2[C@H](O)[C@H](OC(C)=O)[C@@]3(C)O[C@@](C)(CC)CC(=O)[C@]3(O)[C@@]12C

- IC50 (BT-474): 79.6 µM
- IC50 (MCF7 [1]): 52.6 µM
SMILES: CC(=O)O[C@H]1[C@@H](O)[C@H]2C(C)(C)CC[C@H](OCc3cc(-c4ccc(OCc5ccccc5)cc4)no3)[C@]2(C)[C@@]2(O)C(=O)C[C@](C)(C3CC(c4ccc(OCc5ccccc5)cc4)=NO3)O[C@]12C (stereo partly specified)

- IC50 (BT-474): 5 µM
- IC50 (MCF7 [1]): 0.5 µM
SMILES: C=C[C@@]1(C)CC(=O)[C@]2(O)[C@@]3(C)[C@@H](OCc4cc(-c5ccccc5)no4)CCC(C)(C)[C@@H]3[C@H](O)[C@H](OC(C)=O)[C@@]2(C)O1
- Activity (MCF7 [2]): Active

- IC50 (BT-474): > 100 µM
- IC50 (MCF7 [1]): 63.3 µM
SMILES: C=C[C@@]1(C)CC(=O)[C@]2(O)[C@@]3(C)[C@@H](O)CCC(C)(C)[C@@H]3[C@H](O)[C@H](OC(C)=O)[C@@]2(C)O1 [COLFORSIN]
- Activity (MCF7 [2]): Active

- IC50 (BT-474): > 100 µM
- IC50 (MCF7 [1]): 1.1 µM
SMILES: C=C[C@@]1(C)CC(=O)[C@]2(O)[C@@]3(C)[C@@H](OCc4cc(-c5ccc(OC)c(OC)c5)no4)CCC(C)(C)[C@@H]3[C@H](O)[C@H](OC(C)=O)[C@@]2(C)O1

- IC50 (BT-474): 28.3 µM
- IC50 (MCF7 [1]): 12 µM
SMILES: C=C[C@@]1(C)CC(=O)[C@]2(O)[C@@]3(C)[C@@H](OCc4cc(-c5ccc(OC)c(OC)c5)no4)CCC(C)(C)[C@@H]3[C@H](OC(C)=O)[C@H](O)[C@@]2(C)O1

- IC50 (BT-474): 9.1 µM
- IC50 (MCF7 [1]): 2.6 µM
SMILES: CC[C@@]1(C)CC(=O)[C@]2(O)[C@@]3(C)[C@@H](OCc4cc(-c5ccccc5)no4)CCC(C)(C)[C@@H]3[C@H](O)[C@H](OC(C)=O)[C@@]2(C)O1

- IC50 (BT-474): 4 µM
- IC50 (MCF7 [1]): 0.5 µM
SMILES: C=C[C@@]1(C)CC(=O)[C@]2(O)[C@@]3(C)[C@@H](OCc4cc(-c5ccc(OC)cc5)no4)CCC(C)(C)[C@@H]3[C@H](O)[C@H](OC(C)=O)[C@@]2(C)O1
- Activity (MCF7 [2]): Active

- IC50 (BT-474): 7 µM
- IC50 (MCF7 [1]): 1.6 µM
SMILES: CC[C@@]1(C)CC(=O)[C@]2(O)[C@@]3(C)[C@@H](OCc4cc(-c5ccc(Cl)cc5)no4)CCC(C)(C)[C@@H]3[C@H](O)[C@H](OC(C)=O)[C@@]2(C)O1

- IC50 (BT-474): 4.3 µM
- IC50 (MCF7 [1]): 3 µM
SMILES: COc1ccc(C2=NOC([C@@]3(C)CC(=O)[C@]4(O)[C@@]5(C)[C@@H](OCc6cc(-c7ccc(OC)cc7)no6)CCC(C)(C)[C@@H]5[C@H](O)[C@H](OC(C)=O)[C@@]4(C)O3)C2)cc1 (stereo partly specified)

- IC50 (BT-474): 1.3 µM
- IC50 (MCF7 [1]): 3.3 µM
SMILES: CC(=O)O[C@H]1[C@H]2C(C)(C)CC[C@H](OCc3cc(-c4ccc(OCc5ccccc5)cc4)no3)[C@]2(C)[C@@]2(O)C(=O)C[C@](C)(C3CC(c4ccc(OCc5ccccc5)cc4)=NO3)O[C@]2(C)[C@H]1O (stereo partly specified)

- IC50 (BT-474): 75 µM
- IC50 (MCF7 [1]): 7 µM
SMILES: C=C[C@@]1(C)CC(=O)[C@]2(O)[C@@]3(C)[C@@H](OCc4cc(-c5ccc(C)cc5)no4)CCC(C)(C)[C@@H]3[C@H](O)[C@H](OC(C)=O)[C@@]2(C)O1

- IC50 (BT-474): 0.5 µM
- IC50 (MCF7 [1]): 0.5 µM
SMILES: C=C[C@@]1(C)CC(=O)[C@]2(O)[C@@]3(C)[C@@H](OCc4cc(-c5ccc(OCc6ccccc6)cc5)no4)CCC(C)(C)[C@@H]3[C@H](O)[C@H](OC(C)=O)[C@@]2(C)O1
- Activity (MCF7 [2]): Active

- IC50 (BT-474): 2.1 µM
- IC50 (MCF7 [1]): 0.5 µM
SMILES: CC[C@@]1(C)CC(=O)[C@]2(O)[C@@]3(C)[C@@H](OCc4cc(-c5ccc(OC)cc5)no4)CCC(C)(C)[C@@H]3[C@H](O)[C@H](OC(C)=O)[C@@]2(C)O1
- Activity (MCF7 [2]): Active
